Test results published in publication PMC8247773, “Benzohydrazide and Phenylacetamide Scaffolds: New Putative ParE Inhibitors” (Frontiers in Bioengineering and Biotechnology, 2021).
Converted amounts (≈) assume the structure as drawn. “And” between values parts separate entries of the source, which are not always exact repeats. Identical values can stand only once. Like-named read-outs stand apart in the source and are kept apart here.

Legend:
[1] = test system: Klebsiella pneumonia (NCIM 2706); set-up: method as in Yele et al., 2020, 2021; conditions: ref Yele et al., 2020, 2021; cited from earlier work
Vero cells [2] = experiment: In vitro cytotoxicity MTT assay; conditions: CC50 Vero cells / IC50
E. coli [3] = experiment: Checkerboard synergy with FDA approved drugs; format: cell-based, Escherichia coli
E. coli ParE enzyme = molecular target: T1, E. coli ParE enzyme (Escherichia coli, UniProt P20083); experiment: E. coli ParE ATPase enzyme inhibition assay (ProFoldin kit, malachite green); format: biochemical; conditions: ATPase activity, mean ± SD (n = 3); for IC50: read-out: IC50 against E. coli ParE enzyme (converted)
T1 construct: purchased ProFoldin, Hudson, United States
T1 sequence (P20083 whole entry): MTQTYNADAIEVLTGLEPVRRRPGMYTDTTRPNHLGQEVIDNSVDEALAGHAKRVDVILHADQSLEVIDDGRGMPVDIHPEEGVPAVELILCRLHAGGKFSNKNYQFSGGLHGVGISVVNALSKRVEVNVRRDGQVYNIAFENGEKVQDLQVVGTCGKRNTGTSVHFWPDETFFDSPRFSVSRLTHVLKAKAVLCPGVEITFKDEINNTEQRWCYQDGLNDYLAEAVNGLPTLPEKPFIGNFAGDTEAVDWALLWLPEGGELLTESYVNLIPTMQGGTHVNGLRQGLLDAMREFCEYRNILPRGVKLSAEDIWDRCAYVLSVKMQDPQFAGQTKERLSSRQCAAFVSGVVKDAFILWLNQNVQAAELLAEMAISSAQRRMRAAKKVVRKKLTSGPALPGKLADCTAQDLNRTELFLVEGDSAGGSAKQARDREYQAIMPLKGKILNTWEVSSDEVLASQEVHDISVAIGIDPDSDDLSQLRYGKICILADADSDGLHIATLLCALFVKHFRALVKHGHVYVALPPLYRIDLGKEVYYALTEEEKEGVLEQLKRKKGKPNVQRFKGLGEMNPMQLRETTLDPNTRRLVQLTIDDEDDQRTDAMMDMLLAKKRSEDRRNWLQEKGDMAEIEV
T1 sequence (P0AFI2 whole entry, further chain): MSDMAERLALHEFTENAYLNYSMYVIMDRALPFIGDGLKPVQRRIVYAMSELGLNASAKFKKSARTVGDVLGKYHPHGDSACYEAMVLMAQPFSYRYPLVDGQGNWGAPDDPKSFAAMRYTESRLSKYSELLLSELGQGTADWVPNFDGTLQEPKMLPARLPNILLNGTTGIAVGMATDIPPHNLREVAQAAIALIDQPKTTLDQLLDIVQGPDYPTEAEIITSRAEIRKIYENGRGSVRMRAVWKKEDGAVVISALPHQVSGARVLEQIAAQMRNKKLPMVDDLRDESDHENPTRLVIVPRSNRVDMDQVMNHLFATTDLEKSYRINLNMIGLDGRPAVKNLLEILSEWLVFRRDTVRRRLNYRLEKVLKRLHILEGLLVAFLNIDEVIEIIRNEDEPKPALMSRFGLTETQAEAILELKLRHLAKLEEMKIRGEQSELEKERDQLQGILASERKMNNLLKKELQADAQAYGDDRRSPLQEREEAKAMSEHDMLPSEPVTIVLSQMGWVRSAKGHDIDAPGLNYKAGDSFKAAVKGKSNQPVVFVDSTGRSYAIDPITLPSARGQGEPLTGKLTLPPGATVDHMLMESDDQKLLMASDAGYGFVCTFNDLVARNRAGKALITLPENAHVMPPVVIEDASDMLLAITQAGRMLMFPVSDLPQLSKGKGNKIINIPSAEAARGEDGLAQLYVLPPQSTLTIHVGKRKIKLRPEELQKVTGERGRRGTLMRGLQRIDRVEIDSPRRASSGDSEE
Method in brief: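 E. coli ParE ATPase activity measured as inorganic phosphate released from ATP hydrolysis in the presence of DNA. Reaction ran 1 h at 37°C, quenched with malachite green dye, absorbance read at 650 nm after 5 min. IC50 from non-linear regression against no-enzyme and no-compound controls.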

MRSA (NCIM 5021) [4] = experiment: Antibacterial susceptibility test, microbroth dilution MIC; format: cell-based, methicillin-resistant Staphylococcus aureus; conditions: mean ± SD; for MIC: Staphylococcus aureus, read-out: Minimum inhibitory concentration
[5] = test system: Staphylococcus aureus (NCIM 5022); set-up: method as in Yele et al., 2020, 2021; conditions: ref Yele et al., 2020, 2021; cited from earlier work
E. coli [6] = experiment: Post antibiotic effect (PAE); format: cell-based, Escherichia coli; conditions: for Time for 1 log10: untreated control 2 h
[7] = test system: Pseudomonas aeruginosa (NCIM 2036); set-up: method as in Yele et al., 2020, 2021; conditions: ref Yele et al., 2020, 2021; cited from earlier work
[8] = test system: Bacillus subtilis (NCIM 2545); set-up: method as in Yele et al., 2020, 2021; conditions: ref Yele et al., 2020, 2021; cited from earlier work
MRSA (ATCC43300) [9] = experiment: Antibacterial susceptibility test, microbroth dilution MIC; format: cell-based, methicillin-resistant Staphylococcus aureus; conditions: mean ± SD; for MIC: Staphylococcus aureus, read-out: Minimum inhibitory concentration
[10] = test system: Escherichia coli (NCIM 2065); experiment: as above; format: cell-based; conditions: E. Coli (NCIM 2065), mean ± SD; for MIC: Escherichia coli, NCIM2065, read-out: Minimum inhibitory concentration
[11] = test system: Mycobacterium tuberculosis (NCIM 2984); set-up: method as in Yele et al., 2020, 2021; conditions: ref Yele et al., 2020, 2021; cited from earlier work
[12] = test system: Escherichia coli (NCIM 2065); experiment: Minimum bactericidal concentration (MBC); format: cell-based; conditions: E. Coli (NCIM 2065); for MBC/MIC: ratio ≤2 bactericidal, ≥4 tolerance
Procedure: (§1) MBC can be defined as the minimum concentration of a compound required to kill the bacteria over a fixed period under precise conditions. […] Colonies were counted, and colony forming unit (CFU) per milliliter was calculated.

E. coli [13] = experiment: Time-kill kinetics; format: cell-based, Escherichia coli; conditions: 0.5× and 1.0× MIC, 0-24 h
Procedure: Bactericidal activity was evaluated for the compounds by the time-kill kinetics. […] 50 μL aliquot of the culture was inoculated at regular time intervals of 0, 2, 4, 8, 16, and 24 h onto the solidified agar plates, followed by incubation at 37°C for 24 h. Ciprofloxacin is used as a reference throughout the study. CFU was calculated by the colonies formed on the agar plate at each time interval. Time-kill curves were plotted using the CFU/mL of surviving bacteria at each time point in the absence or presence of the compound ([Tsuji et al., 2008]).

[14] = test system: Escherichia coli (NCIM 2567); set-up: method as in Yele et al., 2020, 2021; conditions: ref Yele et al., 2020, 2021; cited from earlier work
MRSA (NCIM 5021) [15] = experiment: Minimum bactericidal concentration (MBC); format: cell-based, methicillin-resistant Staphylococcus aureus
Procedure: as §1

MRSA (ATCC43300) [16] = experiment: Minimum bactericidal concentration (MBC); format: cell-based, methicillin-resistant Staphylococcus aureus
Procedure: as §1

Vero cells [17] = test system: Vero cells
[18] = test system: Staphylococcus epidermis (NCIM 2493); set-up: method as in Yele et al., 2020, 2021; conditions: ref Yele et al., 2020, 2021; cited from earlier work
[19] = test system: preformed E. coli biofilm (NCIM 2065); experiment: E. coli antibiofilm activity (crystal violet); format: cell-based, Escherichia coli; conditions: 10× MIC, 24 h
[20] = In vitro cytotoxicity MTT assay; conditions: African green monkey, Vero cells
[21] = test system: Salmonella typhi (NCIM 2501); set-up: method as in Yele et al., 2020, 2021; conditions: ref Yele et al., 2020, 2021; cited from earlier work
[22] = Escherichia coli, NCIM2065, read-out: MBC
[23] = Staphylococcus aureus, read-out: MBC

| Structure (SMILES) | Minimum inhibitory concentration (MIC) K. p [1] | IC50 against E. coli ParE enzyme (E. coli ParE enzyme) [µg/mL] | Minimum inhibitory concentration (MRSA (NCIM 5021) [4]) [µg/mL] | Minimum inhibitory concentration (MIC) S. a [5] | Minimum inhibitory concentration (MIC) P. a [7] | Minimum inhibitory concentration (MIC) B. s [8] | Minimum inhibitory concentration (MRSA (ATCC43300) [9]) | Minimum inhibitory concentration [10] | Minimum inhibitory concentration (MIC) M. t [11] | MBC [12] [µg/mL] | MBC/MIC [12] | Minimum inhibitory concentration (MIC) E. c [14] | MBC (MRSA (NCIM 5021) [15]) [µg/mL] | MBC/MIC (MRSA (NCIM 5021) [15]) | MBC (MRSA (ATCC43300) [16]) [µg/mL] | MBC/MIC (MRSA (ATCC43300) [16]) | Minimum inhibitory concentration (MIC) S. e [18] | MIC (MRSA (NCIM 5021) [4]) [µg/mL] | MIC (MRSA (ATCC43300) [9]) [µg/mL] | Minimum inhibitory concentration (MIC) S. t [21] | other results |
| --- | --- | --- | --- | --- | --- | --- | --- | --- | --- | --- | --- | --- | --- | --- | --- | --- | --- | --- | --- | --- | --- |
| O=C(COc1ccccc1NC(=O)CCl)Nc1ccc(C(=O)O)cc1Br [Compound 5] | 7.52 | 0.35 ± 0.03 (≈ 0.792 µM) | 0.72 ± 0.05 (≈ 1.63 µM) | 2.64 | 6.25 | 7.82 | 0.68 µg/mL and 0.68 ± 0.08 µg/mL | 0.64 µg/mL and 0.64 ± 0.03 µg/mL | 0.78 | 0.64 ± 0.42 (≈ 1.45 µM) | 1 | 8.25 | 1.54 ± 0.11 (≈ 3.49 µM) | 2 | 0.68 ± 0.08 (≈ 1.54 µM) | 1 | 5.63 | – | – | – | SI (CC50/IC50) (Vero cells [2]): 176.4531; Synergy with FDA-approved antibiotics (E. coli [3]; ciprofloxacin, gentamicin, rifampicin and doxycycline): synergized; PAE = T - C (E. coli [6]; 1 × mic): 1 h; Time for 1 log10 (E. coli [6]; 1 × mic): 3 h; PAE = T - C (E. coli [6]; 10 × mic): ~2 h; Time for 1 log10 (E. coli [6]; 10 × mic): 4 h; Time-kill kinetics result (E. coli [13]): bactericidal property; CC50 (Vero cells [17]): 61.7583 µg/mL (≈ 140 µM) |
| O=C(O)c1cn(C2CC2)c2cc(N3CCNCC3)c(F)cc2c1=O [Ciprofloxacin] | 0.63 | – | – | 0.68 | 0.67 | 0.81 | – | – | 0.60 | – | – | 0.97 | – | – | – | – | 0.74 | 0.67 ± 0.02 (≈ 2.02 µM) | 0.7 ± 0.03 (≈ 2.11 µM) | – | FIC B (E. coli [3]; FIC of the drug in combination with compound 5): 0.1556; FIC B (E. coli [3]; FIC of the drug in combination with compound 21): 0.1589; Inference (E. coli [3]; drug combined with compound 5): Synergistic (synergistic when the ΣFICs is ≤ 0.5); ΣFIC A + FIC B (E. coli [3]; drug combined with compound 5): 0.3162; Inference (E. coli [3]; drug combined with compound 21): Synergistic (synergistic when the ΣFICs is ≤ 0.5); ΣFIC A + FIC B (E. coli [3]; drug combined with compound 21): 0.3614; PAE = T - C (E. coli [6]; 1 × mic): 1 h; Time for 1 log10 (E. coli [6]; 1 × mic): 3 h; PAE = T - C (E. coli [6]; 10 × mic): 2 h; Time for 1 log10 (E. coli [6]; 10 × mic): 4 h; MIC [10]: 0.62 ± 0.015 µg/mL (≈ 1.87 µM); reduction in biofilm [19]: 86% |
| O=C(CSc1nc2ccccc2s1)Nc1ccc(C(=O)O)cc1[N+](=O)[O-] [Compound 25] | 1.86 | – | – | 0.85 | 2.60 | 1.72 | – | 0.72 ± 0.05 µg/mL (≈ 1.85 µM) | 5.17 | – | 3 | 3.86 | – | 3 | – | – | 0.79 | 0.86 ± 0.13 (≈ 2.21 µM) | 1.11 ± 0.12 (≈ 2.85 µM) | – | CC50 at 48 h [20]: 194 µg/mL (≈ 498 µM); IC50 (E. coli ParE enzyme): 0.719 µM; MIC [10]: 0.72 µg/mL (≈ 1.85 µM); MBC [12, 22]: 7.09 ± 0.02 µg/mL (≈ 18.2 µM); MBC (MRSA (NCIM 5021) [15]; [23]): 8.37 ± 0.17 µg/mL (≈ 21.5 µM) |
| CC1(C)S[C@@H]2[C@H](NC(=O)[C@H](N)c3ccccc3)C(=O)N2[C@H]1C(=O)O [ampicillin] | – | – | – | – | – | – | – | – | – | – | – | – | – | – | – | – | – | – | – | – | reduction in biofilm [19]: 63% |
| O=C(COc1ccccc1NC(=O)CCl)Nc1ccc(C(=O)O)cc1 [Compound 3] | 0.75 | 0.95 ± 0.09 (≈ 2.62 µM) | 1.84 ± 0.13 (≈ 5.07 µM) | 4.23 | 0.67 | 6.30 | 1.79 ± 0.21 µg/mL (≈ 4.93 µM) | 1.81 ± 0.15 µg/mL (≈ 4.99 µM) | 2.31 | 1.75 ± 0.09 (≈ 4.82 µM) | 1 | 0.82 | 1.84 ± 0.13 (≈ 5.07 µM) | 1 | 1.79 ± 0.21 (≈ 4.93 µM) | 1 | 3.04 | – | – | 1.52 | SI (CC50/IC50) (Vero cells [2]): 188.2886; CC50 (Vero cells [17]): 178.8742 µg/mL (≈ 493 µM) |
| O=C(CCl)Nc1ccccc1OCC(=O)Nc1ccc(C(=O)O)cc1[N+](=O)[O-] [Compound 8] | 0.72 | – | 0.66 ± 0.13 (≈ 1.62 µM) | 8.64 | 0.69 | 7.80 | – | – | 1.38 | – | 1 | 0.70 | – | 1 | – | 2 | 4.83 | 0.66 (≈ 1.62 µM) | 1.06 ± 0.12 (≈ 2.6 µM) | 0.72 | CC50 at 48 h [20]: 257 µg/mL (≈ 630 µM); IC50 (E. coli ParE enzyme): 0.662 µM; MIC [10]: 0.93 ± 0.03 µg/mL (≈ 2.28 µM); MBC [12, 22]: 0.93 ± 0.03 µg/mL (≈ 2.28 µM); MBC (MRSA (NCIM 5021) [15]; [23]): 0.63 ± 0.13 µg/mL (≈ 1.55 µM); MBC (MRSA (ATCC43300) [16]; [23]): 2.46 ± 0.12 µg/mL (≈ 6.03 µM) |
| Cc1ccc(C(=O)NNC(=O)COc2ccc3ccccc3c2)cc1 [Compound 22] | 0.81 | 1.01 (≈ 3.02 µM) | 0.90 ± 0.04 (≈ 2.69 µM) | 1.16 | 0.82 | 3.63 | 0.76 ± 0.06 µg/mL (≈ 2.27 µM) | 0.89 ± 0.01 µg/mL (≈ 2.66 µM) | 0.89 | 0.89 ± 0.01 (≈ 2.66 µM) | 1 | 1.23 | 0.90 ± 0.04 (≈ 2.69 µM) | 1 | 0.76 ± 0.06 (≈ 2.27 µM) | 1 | 1.04 | – | – | 0.77 | – |
| O=C(COc1ccccc1NC(=O)CCl)Nc1ccc(Cl)cc1 [Compound 2] | 2.95 | 2.33 (≈ 6.6 µM) | 2.41 ± 0.65 (≈ 6.82 µM) | 0.69 | 2.59 | 0.72 | 1.34 ± 0.49 µg/mL (≈ 3.79 µM) | 1.01 ± 0.19 µg/mL (≈ 2.86 µM) | 4.52 | 2.00 ± 0.01 (≈ 5.66 µM) | 2 | 2.45 | 4.8 ± 0.21 (≈ 13.6 µM) | 2 | 2.71 ± 0.21 (≈ 7.67 µM) | 2 | 0.92 | – | – | 2.56 | – |
